From ChEMBL document CHEMBL1143114, “Preparation and affinity profile of novel nicotinic ligands” (Bioorg Med Chem Lett, 2008)
The source made the active and inactive calls. The calls are words filed in the database; no cut-off is given here.

Tests used:
[1] = target: Neuronal acetylcholine receptor; alpha4/beta2 (Rattus norvegicus, UniProt P09483+P12390); test: Displacement of [3H]cystisine from nicotinic alpha-4-beta-2 receptor in rat brain; type: tissue-based
[2] = target: Muscarinic acetylcholine receptor; test: Displacement of [3H]oxotremorine from muscarinic receptor in rat brain; type: tissue-based
[3] = target: Neuronal acetylcholine receptor subunit alpha-7 (Rattus norvegicus, UniProt Q05941); test: Displacement of [3H]alpha-bungaro-toxine from nicotinic alpha-7 receptor in rat brain; type: tissue-based
Sequence of Neuronal acetylcholine receptor subunit alpha-7 (Q05941 whole entry): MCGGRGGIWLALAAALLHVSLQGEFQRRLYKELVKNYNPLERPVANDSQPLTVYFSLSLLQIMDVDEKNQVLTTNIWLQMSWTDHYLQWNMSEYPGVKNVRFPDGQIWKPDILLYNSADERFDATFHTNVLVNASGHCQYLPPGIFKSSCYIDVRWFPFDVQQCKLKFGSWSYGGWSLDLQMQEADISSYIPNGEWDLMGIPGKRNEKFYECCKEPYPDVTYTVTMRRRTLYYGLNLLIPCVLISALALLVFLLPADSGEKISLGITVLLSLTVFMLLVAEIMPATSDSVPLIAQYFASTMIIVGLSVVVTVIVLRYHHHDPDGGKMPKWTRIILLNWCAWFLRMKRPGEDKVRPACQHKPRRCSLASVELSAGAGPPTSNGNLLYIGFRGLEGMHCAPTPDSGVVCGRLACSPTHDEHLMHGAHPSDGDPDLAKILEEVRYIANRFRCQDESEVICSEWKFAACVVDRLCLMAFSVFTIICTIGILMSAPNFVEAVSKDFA

Rattus norvegicus [4] = species: Rattus norvegicus; test: Increase in cortical acetyl choline levels in rat by microdialysis; type: functional, organism-based
Rattus norvegicus [5] = species: Rattus norvegicus; test: Effect on memory in Wistar rat by social recognition test; type: functional, organism-based

Sequence of Neuronal acetylcholine receptor; alpha4/beta2 (P09483 whole entry): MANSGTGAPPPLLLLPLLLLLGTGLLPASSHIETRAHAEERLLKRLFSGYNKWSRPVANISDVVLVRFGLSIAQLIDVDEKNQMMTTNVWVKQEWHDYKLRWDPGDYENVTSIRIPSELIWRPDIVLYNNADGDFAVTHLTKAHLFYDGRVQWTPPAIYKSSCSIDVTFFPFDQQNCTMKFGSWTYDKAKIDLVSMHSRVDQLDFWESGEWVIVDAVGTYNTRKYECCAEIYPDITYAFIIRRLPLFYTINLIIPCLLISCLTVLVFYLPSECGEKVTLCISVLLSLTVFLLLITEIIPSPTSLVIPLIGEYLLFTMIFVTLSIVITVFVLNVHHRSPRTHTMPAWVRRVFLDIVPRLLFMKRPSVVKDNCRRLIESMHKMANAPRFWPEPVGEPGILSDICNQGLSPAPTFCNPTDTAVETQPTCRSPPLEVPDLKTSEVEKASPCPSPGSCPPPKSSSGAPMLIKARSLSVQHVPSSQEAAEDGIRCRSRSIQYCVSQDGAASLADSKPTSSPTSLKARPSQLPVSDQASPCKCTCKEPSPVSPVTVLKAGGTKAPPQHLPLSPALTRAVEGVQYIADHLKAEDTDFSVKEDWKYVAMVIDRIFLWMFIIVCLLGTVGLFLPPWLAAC
Sequence of Neuronal acetylcholine receptor; alpha4/beta2 (P12390 whole entry): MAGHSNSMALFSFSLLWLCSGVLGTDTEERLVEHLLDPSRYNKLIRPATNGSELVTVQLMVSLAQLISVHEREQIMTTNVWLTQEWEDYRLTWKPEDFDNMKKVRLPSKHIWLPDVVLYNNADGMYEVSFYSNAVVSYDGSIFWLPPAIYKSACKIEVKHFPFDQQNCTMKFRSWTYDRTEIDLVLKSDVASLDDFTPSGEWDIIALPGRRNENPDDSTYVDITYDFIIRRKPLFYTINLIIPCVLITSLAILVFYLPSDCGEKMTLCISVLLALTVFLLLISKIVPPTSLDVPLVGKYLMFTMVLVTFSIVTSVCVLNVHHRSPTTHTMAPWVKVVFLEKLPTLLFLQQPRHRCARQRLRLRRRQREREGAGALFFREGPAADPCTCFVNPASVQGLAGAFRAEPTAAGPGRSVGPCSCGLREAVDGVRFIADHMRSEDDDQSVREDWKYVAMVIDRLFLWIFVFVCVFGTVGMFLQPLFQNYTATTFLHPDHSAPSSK

In the case of CNC1(COc2ccc(Cl)nc2)CC1.Cl, the Ki [1] is reported as 0.013 µM, the Ki [2] is reported as greater than 10 µM and the Ki [3] is reported as greater than 10 µM.
In the case of c1cncc(OCC2(N3CCCC3)CC2)c1, the Ki [1] is reported as 1.61 µM, the Ki [2] is reported as greater than 10 µM and the Ki [3] is reported as greater than 10 µM.
For CNC1(/C=C/COc2cccnc2)CC1.Cl, the Ki [1] was 1.1 µM, the Ki [2] was greater than 10 µM and the Ki [3] was greater than 10 µM.
CNC1(CCc2cccnc2)CC1.Cl showed a Ki [1] of 0.251 µM, a Ki [2] greater than 10 µM and a Ki [3] of 1.91 µM.
With CN(C)C1(COc2cccnc2)CC1.Cl the Ki [1] was 0.095 µM, the Ki [2] was greater than 10 µM and the Ki [3] was greater than 10 µM.
Work on C=Cc1cncc(OCC2(NC)CC2)c1.Cl yielded a Ki [1] of 0.0701 µM, a Ki [2] greater than 10 µM and a Ki [3] greater than 10 µM.
CNC1(/C=C/c2cccnc2)CC1.O=C(O)/C=C/C(=O)O showed a Ki [1] of 1.16 µM, a Ki [2] greater than 10 µM and a Ki [3] of 3.46 µM.
Compound CNC1(/C=C\COc2cccnc2)CC1.Cl has a Ki [1] of 2.28 µM, a Ki [2] greater than 10 µM and a Ki [3] greater than 10 µM.
Compound C#Cc1cncc(OCC2(NC)CC2)c1.Cl has a Ki [1] of 0.00656 µM, a Ki [2] greater than 10 µM and a Ki [3] greater than 10 µM.
CNC1(COc2cnc(Cl)c(Br)c2)CC1.Cl gave a Ki [1] of 0.00537 µM, a Ki [2] greater than 10 µM and a Ki [3] greater than 10 µM.
CNC1(COc2ccc(Br)nc2)CC1.Cl showed a Ki [1] of 0.0388 µM, a Ki [2] greater than 10 µM and a Ki [3] greater than 10 µM.
In the case of Cc1ccc(OCC2(N)CC2)cn1, the Ki [1] is reported as 0.266 µM.
Cl.NC1(COc2cccnc2)CC1 was tested, and the Ki [1] was 0.034 µM, the Ki [2] was greater than 10 µM and the Ki [3] was greater than 10 µM.
CNC1(COc2ccc(C)nc2)CC1.Cl was tested, and the Ki [1] was 0.04 µM, the Ki [2] was greater than 10 µM and the Ki [3] was greater than 10 µM.
CN(C)C1(COc2cncc(Br)c2)CC1 gave a Ki [1] of 0.273 µM.
In the case of Cc1ccc(OCC2(N(C)C)CC2)cn1, the Ki [1] is reported as 1.09 µM.
In the case of CN(C)C1(COc2ccc(Cl)nc2)CC1, the Ki [1] is reported as 0.304 µM.
With CNC1(COc2cccnc2)CC1.Cl the Ki [1] was 0.003 µM, the Ki [2] was greater than 10 µM and the Activity (Rattus norvegicus [4]) was “Dose-dependent effect”. For the same compound, the Activity (Rattus norvegicus [5]) was “Active” and the Ki [3] was greater than 10 µM.
In the case of NC1(COc2ccc(Cl)nc2)CC1, the Ki [1] is reported as 0.098 µM.
Compound CNC1(COc2cncc(Br)c2)CC1.Cl has a Ki [1] of 0.00107 µM, a Ki [2] greater than 10 µM and a Ki [3] greater than 10 µM.
CN(C)C1(COc2ccc(Br)nc2)CC1 showed a Ki [1] of 0.394 µM.
CCNC1(COc2cccnc2)CC1 was tested, and the Ki [1] was 1.01 µM, the Ki [2] was greater than 10 µM and the Ki [3] was greater than 10 µM.
Compound CN(C)C1(COc2cnc(Cl)c(Br)c2)CC1 has a Ki [1] of 0.11 µM.
For CNC1(CCCOc2cccnc2)CC1.O=C(O)/C=C/C(=O)O, the Ki [1] was 2.46 µM, the Ki [2] was greater than 10 µM and the Ki [3] was greater than 10 µM.
CNC1(CCOc2cccnc2)CC1.O=C(O)/C=C/C(=O)O was tested, and the Ki [1] was 0.109 µM, the Ki [2] was greater than 10 µM and the Ki [3] was greater than 10 µM.
